Assay results reported in patent publication US20190084968A1, “FUMAGILLOL HETEROCYCLIC COMPOUNDS AND METHODS OF MAKING AND USING SAME” (Zafgen, Inc., priority 2015, published 2019).
Values joined by “and” are separate entries in the source; they are usually repeats but may differ in a detail not shown here. Equal entries are not always repeated. Structures can show the parent of a compound that is named as a salt.

Tests used:
[1] = tested on: embryo/fetal development in pregnant Sprague Dawley rats; settings: 6 mpk subcutaneously once every three days, Gestation Days 6-18, pregnant rats
Method: The objective of this study design was to evaluate the potential effects of disclosed compounds on embryo/fetal development when given subcutaneously to pregnant rats once every three days during the critical period of organogenesis (Gestation Days 6-18). Female, Sprague Dawley rats, approximately 10 weeks of age, time bred, were ordered from a certified vendor and housed individually housed in stainless steel cages suspended over flush pans, on a 12-hour light-dark cycle (0700-1900) at 20-26° C. and 30-70% humidity. Rats were fed a standard rodent chow and provided water ad libitum. Rats were received and housed in the facility for a period of approximately 1 to 2 days.
Compounds were formulated using 100% DMSO mixed in Sterile Water for Injection, resulting in 2% DMSO solution in water. If necessary, due to limited solubility of a test article, a higher percentage of DMSO solution in water was used. Groups of 8 mated and presumed pregnant female rats were given subcutaneous doses of vehicle or test article, once every three days, beginning on Gestation Day 6 and ending on Gestation Day 18 (Days 6, 9, 12, 15, and 18), maintained two more days, and then euthanized and necropsied on Gestation Day 20. Body weights was recorded for all animals on Gestation Days 5 (purpose of randomization), 6, 9, 12, 15, 18, and 20 (scheduled euthanasia). Food consumption by weight was recorded on Gestation Days 6, 9, 12, 15, 18, and 20 (scheduled termination).
At necropsy, the dams were examined visually for external abnormalities including palpable masses. The abdominal, thoracic, and cranial cavities and their contents were examined for abnormalities and findings will be recorded. The reproductive tract were examined to record the number of ovarian corpora lutea, the number and location of uterine implantation sites noting the position of the cervix, and the number of early resorptions, late resorptions, live fetuses, and dead fetuses. For dead fetuses and late resorptions, crown-to-rump length and weight were recorded, if possible, and the fetus was discarded. For viable fetuses, weight, sex, and grossly visible external abnormalities were recorded.

[2] = tested on: Diet Induced Obese (DIO) C57BL/6 mice; experiment: 10 day DIO mouse model (body weight, food intake, hematology, blood chemistry); type: in vivo
Description: The objective of this study design was to investigate the efficacy of disclosed compounds in a 10 day DIO mouse model. Effects on body weight, food intake, hematology and blood chemistry were the primary readouts of this study design. […] Mice were fed Research Diets D12492 (60% Kcal fat, 20% Kcal carbohydrate and 20% protein) and provided water ad libitum. DIO mice were received and housed in the facility for approximately two weeks prior to the start of test article administration. On Day −4 or −3, mice were randomized into study groups based on body weight and body weights were continued to be recorded daily for the duration of the study. Daily food intake was assessed starting on Study Day −2 by weighing of the food with hopper together to avoid loss of food in transfer.
(§1) Compounds were formulated into a 100% DMSO stock (at 9 mg/mL) prior to the start, and further diluted into the target working concentration using the vehicle of 10% DMSO in water. Prior to test article administration, starting on Day −3 a dosing acclimation occured with all animals receiving a subcutaneous injection of vehicle (10% DMSO) only for 3 days. Starting on Day 1, test compounds or vehicle were administered based on individual body weight, subcutaneously, once a day for 10 days. All mice were sacrificed on Day 11, 24 hours following the final dosing on Day 10. After sacrifice, whole blood was collected and analyzed for hematology and blood chemistry parameters.
(§2) Compounds were tested vs. vehicle at various doses (1.0, 0.5, 0.3, 0.1, 0.03 mpk sc (mg per kg animal weight delivered subcutaneously), and the results are shown in Table 2 below.

[3] = tested on: Sprague Dawley rats on high fat diet (DIO); experiment: 11 day rat DIO model (body weight, food intake, hematology, blood chemistry); type: in vivo
Description: The objective of this study design is to investigate the efficacy of disclosed compounds in an 11 day rat DIO model used to screen compounds for pharmacologic efficacy on endpoints related to obesity and metabolism. Effects on body weight, food intake, hematology and blood chemistries were the primary readouts of this study design. […] Rats were fed Research Diets D12451 (45% High Fat) and provided water ad libitum. Rats were received and housed in the facility for at least two or three weeks prior to start of test article administration. On Day −4 or −3, rats were randomized into study groups based on body weight and body weights were continued to be recorded daily for the duration of the study. Daily food intake was assessed starting on Study Day −2 by weighing the hopper including the food to avoid loss of food in transfer.
as §1, with “for 11” for “for 10”, “All animals” for “All mice”, “11, approximately 2” for “11, 24”, “Day 11.” for “Day 10.”
as §2

SMILES: CO[C@@H]1[C@H](OC(=O)N2CC(CCN3CCOCC3)C2)CC[C@]2(CO2)[C@H]1[C@@]1(C)O[C@@H]1CC=C(C)C [Example 1, (3R,4S,5S,6R)-5-methoxy-4-((2R,3R)-2-methyl-3-(3-methylbut-2-en-1-yl)oxiran-2-yl)-1-oxaspiro[2.5]octan-6-yl 3-(2-morpholinoethyl)azetidine-1-carboxylate]
- Rat Embryofetal @6 mpk [1]: Negative

SMILES: CO[C@@H]1[C@H](OC(=O)N2CC(CCN3CC(F)(F)C3)C2)CC[C@]2(CO2)[C@H]1[C@@]1(C)O[C@@H]1CC=C(C)C [Example 2, (3R,4S,5S,6R)-5-methoxy-4-((2R,3R)-2-methyl-3-(3-methylbut-2-enyl)oxiran-2-yl)-1-oxaspiro[2.5]octan-6-yl 3-(2-(3,3-difluoroazetidin-1-yl)ethyl)azetidine-1-carboxylate]
- Rat Embryofetal @6 mpk [1]: Negative

SMILES: CO[C@@H]1[C@H](OC(=O)N2CC(CCN3CCC(O)CC3)C2)CC[C@]2(CO2)[C@H]1[C@@]1(C)O[C@@H]1CC=C(C)C [Example 7, (3R,4S,5S,6R)-5-methoxy-4-((2R,3R)-2-methyl-3-(3-methylbut-2-en-1-yl)oxiran-2-yl)-1-oxaspiro[2.5]octan-6-yl 3-(2-(4-hydroxypiperidin-1-yl)ethyl)azetidine-1-carboxylate]
- DIO Mouse 10-day weight loss vs vehicle at indicated dose ([2]; DIO mouse, 0.3 mpk sc, once a day for 10 days): 1.8%

SMILES: CO[C@@H]1[C@H](OC(=O)N2CC(CCN3CC4CCC(C3)O4)C2)CC[C@]2(CO2)[C@H]1[C@@]1(C)O[C@@H]1CC=C(C)C [Example 33, (4S,5S,6R)-5-methoxy-4-((2R,3R)-2-methyl-3-(3-methylbut-2-enyl)oxiran-2-yl)-1-oxaspiro[2.5]octan-6-yl 3-(2-(8-oxa-3-azabicyclo[3.2.1]octan-3-yl)ethyl)azetidine-1-carboxylate]
- percent body weight loss vs vehicle at 0.3 mg/kg ([2]; 240 h, DIO mouse, 0.3 mpk sc, once a day for 10 days, read-out: DIO Mouse 10-day weight loss vs vehicle at indicated dose): 15.9%

SMILES: CNC(=O)OC1CN(C(=O)O[C@@H]2CC[C@]3(CO3)[C@@H]([C@@]3(C)O[C@@H]3CC=C(C)C)[C@@H]2OC)C1 [Example 74, (3R,4S,5S,6R)-5-methoxy-4-((2R,3R)-2-methyl-3-(3-methylbut-2-enyl)oxiran-2-yl)-1-oxaspiro[2.5]octan-6-yl 3-(methylcarbamoyloxy)azetidine-1-carboxylate]
- Rat Embryofetal @6 mpk [1]: Negative

SMILES: CO[C@@H]1[C@H](OC(=O)N2CC(OC(=O)N3CCN(C)CC3)C2)CC[C@]2(CO2)[C@H]1[C@@]1(C)O[C@@H]1CC=C(C)C [Example 78, 1-(((3R,4S,5S,6R)-5-methoxy-4-((2R,3R)-2-methyl-3-(3-methylbut-2-enyl)oxiran-2-yl)-1-oxaspiro[2.5]octan-6-yloxy)carbonyl)azetidin-3-yl 4-methylpiperazine-1-carboxylate]
- Rat Embryofetal @6 mpk [1]: Positive

SMILES: CO[C@@H]1[C@H](OC(=O)N2CC(OC(=O)N3CCN(CC(F)(F)F)CC3)C2)CC[C@]2(CO2)[C@H]1[C@@]1(C)O[C@@H]1CC=C(C)C [Example 81, 1-(((3R,4S,5S,6R)-5-methoxy-4-((2R,3R)-2-methyl-3-(3-methylbut-2-enyl)oxiran-2-yl)-1-oxaspiro[2.5]octan-6-yloxy)carbonyl)azetidin-3-yl 4-(2,2,2-trifluoroethyl)piperazine-1-carboxylate]
- Rat Embryofetal @6 mpk [1]: Positive

SMILES: CCN(CC)CCNC(=O)CCC1CN(C(=O)O[C@@H]2CC[C@]3(CO3)[C@@H]([C@@]3(C)O[C@@H]3CC=C(C)C)[C@@H]2OC)C1 [Example 88, (3R,4S,5S,6R)-5-methoxy-4-((2R,3R)-2-methyl-3-(3-methylbut-2-enyl)oxiran-2-yl)-1-oxaspiro[2.5]octan-6-yl 3-(3-(2-(diethylamino)ethylamino)-3-oxopropyl)azetidine-1-carboxylate formate]
- Rat Embryofetal @6 mpk [1]: Positive
- DIO Mouse 10-day weight loss vs vehicle at indicated dose ([2]; mouse, in vivo, sc, 0.3 mg/kg): 9%
- DIO Rat 11-day weight loss vs vehicle at indicated dose ([3]; rat, in vivo, sc, 0.3 mg/kg): 4.4%

SMILES: CO[C@@H]1[C@H](OC(=O)N2CC(Cc3ccc(C)nc3)C2)CC[C@]2(CO2)[C@H]1[C@@]1(C)O[C@@H]1CC=C(C)C [Example 101, (3R,4S,5S,6R)-5-methoxy-4-((2R,3R)-2-methyl-3-(3-methylbut-2-enyl)oxiran-2-yl)-1-oxaspiro[2.5]octan-6-yl 3-((6-methylpyridin-3-yl)methyl)azetidine-1-carboxylate]
- Rat Embryofetal @6 mpk [1]: Positive

SMILES: CCN(CC)CCC1CN(C(=O)O[C@@H]2CC[C@]3(CO3)[C@@H]([C@@]3(C)O[C@@H]3CC=C(C)C)[C@@H]2OC)C1 [Example 103, (3R,4S,5S,6R)-5-methoxy-4-((2R,3R)-2-methyl-3-(3-methylbut-2-enyl)oxiran-2-yl)-1-oxaspiro[2.5]octan-6-yl 3-(2-(diethylamino)ethyl)azetidine-1-carboxylate]
- Rat Embryofetal @6 mpk [1]: Positive

SMILES: CCN(CC)CCCC1CN(C(=O)O[C@@H]2CC[C@]3(CO3)[C@@H]([C@@]3(C)O[C@@H]3CC=C(C)C)[C@@H]2OC)C1 [Example 104, (3R,4S,5S,6R)-5-methoxy-4-((2R,3R)-2-methyl-3-(3-methylbut-2-enyl)oxiran-2-yl)-1-oxaspiro[2.5]octan-6-yl 3-(3-(diethylamino)propyl)azetidine-1-carboxylate]
- Rat Embryofetal @6 mpk [1]: Positive

SMILES: CCN(CC)CCC1CCN1C(=O)O[C@@H]1CC[C@]2(CO2)[C@@H]([C@@]2(C)O[C@@H]2CC=C(C)C)[C@@H]1OC (stereo partly drawn) [Example 106, (3R,4S,5S,6R)-5-methoxy-4-((2R,3R)-2-methyl-3-(3-methylbut-2-enyl)oxiran-2-yl)-1-oxaspiro[2.5]octan-6-yl 2-(2-(diethylamino)ethyl)azetidine-1-carboxylate]
- DIO Mouse 10-day weight loss vs vehicle at indicated dose ([2]; DIO mouse, 0.1 mpk sc, once a day for 10 days): 2%
- DIO Mouse 10-day weight loss vs vehicle at indicated dose ([2]; DIO mouse, 0.3 mpk sc, once a day for 10 days, 0.3 mg/kg): 10.8% and 0.8%
- DIO Rat 11-day weight loss vs vehicle at indicated dose ([3]; DIO rat, 0.5 mpk sc, once a day for 11 days): 4.82%

SMILES: CO[C@@H]1[C@H](OC(=O)/C=C/c2ccc(OCCN(C)C)cc2)CC[C@]2(CO2)[C@H]1[C@@]1(C)O[C@@H]1CC=C(C)C [compound A, [(3R,6R,7S,8S)-7-methoxy-8-[(2R,3R)-2-methyl-3-(3-methylbut-2-enyl)oxiran-2-yl]-2-oxaspiro[2.5]octan-6-yl] (E)-3-[4-[2-(dimethylamino)ethoxy]phenyl]prop-2-enoate, reference compound]
- Rat Embryofetal @6 mpk [1]: Positive
